Experimental data as given in US9981959B2, “Thiazolyl and oxazolyl urea, thiourea, guanidine and cyanoguanidine compounds as TrkA kinase inhibitors” (Array BioPharma Inc., priority 2012, dated 2018).

Assays:
AURKA = target: T1, AURKA (Homo sapiens, UniProt O14965); experiment: KinaseProfiler off-target kinase profiling; assay type: biochemical; conditions: 10 μM, ATP near Km
T1 construct: purchased Millipore (KinaseProfiler service)
Method: (§1) A representative compound of the invention (Example 2) was tested for off-target kinase activity at a concentration of 10 μM by Millipore, Inc. in their KinaseProfiler™ service against all the kinases available in their full kinase panel. The compound was run in duplicate at a concentration of ATP near the Km for each individual kinase according to Millipore's specifications. The results are shown in Table B. Data are reported as percent of control (POC) and are the average of the two replicates.

Abl2 = target: T2, Abl2 (Homo sapiens, UniProt P42684); experiment: KinaseProfiler off-target kinase profiling; assay type: biochemical; conditions: 10 μM, ATP near Km
T2 construct: purchased Millipore (KinaseProfiler service)
Method: as §1

CAMK1d = target: T3, CAMK1d (Homo sapiens, UniProt Q8IU85); experiment: KinaseProfiler off-target kinase profiling; assay type: biochemical; conditions: 10 μM, ATP near Km
T3 construct: purchased Millipore (KinaseProfiler service)
Method: as §1

CDK6/cyclinD3 = target: T4, CDK6/cyclinD3 (Homo sapiens, UniProt Q00534); experiment: KinaseProfiler off-target kinase profiling; assay type: biochemical; conditions: 10 μM, ATP near Km
T4 construct: purchased Millipore, Inc. (KinaseProfiler service)
Method: as §1

CK1gamma2 = target: T5, CK1gamma2 (Homo sapiens, UniProt P78368); experiment: KinaseProfiler off-target kinase profiling; assay type: biochemical; conditions: 10 μM, ATP near Km
T5 construct: purchased Millipore, Inc. (KinaseProfiler service)
Method: as §1

CK2 = target: T6, CK2 (Homo sapiens, UniProt P68400); experiment: KinaseProfiler off-target kinase profiling; assay type: biochemical; conditions: 10 μM, ATP near Km
T6 construct: purchased Millipore, Inc. (KinaseProfiler service)
Method: as §1

CLK2 = target: T7, CLK2 (Homo sapiens, UniProt P49760); experiment: KinaseProfiler off-target kinase profiling; assay type: biochemical; conditions: 10 μM, ATP near Km
T7 construct: purchased Millipore, Inc. (KinaseProfiler service)
Method: as §1

EGFR = target: T8, EGFR (Homo sapiens, UniProt P00533); experiment: KinaseProfiler off-target kinase profiling; assay type: biochemical; conditions: 10 μM, ATP near Km
T8 construct: purchased Millipore, Inc. (KinaseProfiler service)
Method: as §1

EphA7 = target: T9, EphA7 (Rattus norvegicus, UniProt P54759); experiment: KinaseProfiler off-target kinase profiling; assay type: biochemical; conditions: 10 μM, ATP near Km
T9 construct: purchased Millipore, Inc. (KinaseProfiler service)
Method: as §1

Fes = target: T10, Fes (Homo sapiens, UniProt P07332); experiment: KinaseProfiler off-target kinase profiling; assay type: biochemical; conditions: 10 μM, ATP near Km
T10 construct: purchased Millipore, Inc. (KinaseProfiler service)
Method: as §1

Flt1 = target: T11, Flt1 (Homo sapiens, UniProt P17948); experiment: KinaseProfiler off-target kinase profiling; assay type: biochemical; conditions: 10 μM, ATP near Km
T11 construct: purchased Millipore, Inc. (KinaseProfiler service)
Method: as §1

Haspin = target: T12, Haspin (Homo sapiens, UniProt Q8TF76); experiment: KinaseProfiler off-target kinase profiling; assay type: biochemical; conditions: 10 μM, ATP near Km
T12 construct: purchased Millipore, Inc. (KinaseProfiler service)
Method: as §1

IGF-1R = target: T13, IGF-1R (Homo sapiens, UniProt P08069); experiment: KinaseProfiler off-target kinase profiling; assay type: biochemical; conditions: 10 μM, ATP near Km
T13 construct: purchased Millipore, Inc. (KinaseProfiler service)
Method: as §1

IRAK1 = target: T14, IRAK1 (Homo sapiens, UniProt P51617); experiment: KinaseProfiler off-target kinase profiling; assay type: biochemical; conditions: 10 μM, ATP near Km
T14 construct: purchased Millipore, Inc. (KinaseProfiler service)
Method: as §1

JAK2 = target: T15, JAK2 (Homo sapiens, UniProt O60674); experiment: KinaseProfiler off-target kinase profiling; assay type: biochemical; conditions: 10 μM, ATP near Km
T15 construct: purchased Millipore, Inc. (KinaseProfiler service)
Method: as §1

LIMK1 = target: T16, LIMK1 (Homo sapiens, UniProt P53667); experiment: KinaseProfiler off-target kinase profiling; assay type: biochemical; conditions: 10 μM, ATP near Km
T16 construct: purchased Millipore, Inc. (KinaseProfiler service)
Method: as §1

MAPKAP-K2 = target: T17, MAPKAP-K2 (Homo sapiens, UniProt P49137); experiment: KinaseProfiler off-target kinase profiling; assay type: biochemical; conditions: 10 μM, ATP near Km
T17 construct: purchased Millipore, Inc. (KinaseProfiler service)
Method: as §1

MKK7beta = target: T18, MKK7beta (Homo sapiens, UniProt O14733); experiment: KinaseProfiler off-target kinase profiling; assay type: biochemical; conditions: 10 μM, ATP near Km
T18 construct: purchased Millipore, Inc. (KinaseProfiler service)
Method: as §1

MST2 = target: T19, MST2 (Homo sapiens, UniProt Q13188); experiment: KinaseProfiler off-target kinase profiling; assay type: biochemical; conditions: 10 μM, ATP near Km
T19 construct: purchased Millipore, Inc. (KinaseProfiler service)
Method: as §1

Mer = target: T20, Mer (Homo sapiens, UniProt Q12866); experiment: KinaseProfiler off-target kinase profiling; assay type: biochemical; conditions: 10 μM, ATP near Km
T20 construct: purchased Millipore, Inc. (KinaseProfiler service)
Method: as §1

NEK3 = target: T21, NEK3 (Homo sapiens, UniProt P51956); experiment: KinaseProfiler off-target kinase profiling; assay type: biochemical; conditions: 10 μM, ATP near Km
T21 construct: purchased Millipore, Inc. (KinaseProfiler service)
Method: as §1

PAK5 = target: T22, PAK5 (Homo sapiens, UniProt Q9P286); experiment: KinaseProfiler off-target kinase profiling; assay type: biochemical; conditions: 10 μM, ATP near Km
T22 construct: purchased Millipore, Inc. (KinaseProfiler service)
Method: as §1

PKCgamma = target: T23, PKCgamma (Homo sapiens, UniProt P05129); experiment: KinaseProfiler off-target kinase profiling; assay type: biochemical; conditions: 10 μM, ATP near Km
T23 construct: purchased Millipore, Inc. (KinaseProfiler service)
Method: as §1

PKCiota = target: T24, PKCiota (Homo sapiens, UniProt P41743); experiment: KinaseProfiler off-target kinase profiling; assay type: biochemical; conditions: 10 μM, ATP near Km
T24 construct: purchased Millipore, Inc. (KinaseProfiler service)
Method: as §1

PKD1 = target: T25, PKD1 (Homo sapiens, UniProt Q15139); experiment: KinaseProfiler off-target kinase profiling; assay type: biochemical; conditions: 10 μM, ATP near Km
T25 construct: purchased Millipore, Inc. (KinaseProfiler service)
Method: as §1

Plk2 = target: T26, Plk2 (Homo sapiens, UniProt Q9NYY3); experiment: KinaseProfiler off-target kinase profiling; assay type: biochemical; conditions: 10 μM, ATP near Km
T26 construct: purchased Millipore, Inc. (KinaseProfiler service)
Method: as §1

SGK2 = target: T27, SGK2 (Homo sapiens, UniProt Q9HBY8); experiment: KinaseProfiler off-target kinase profiling; assay type: biochemical; conditions: 10 μM, ATP near Km
T27 construct: purchased Millipore, Inc. (KinaseProfiler service)
Method: as §1

TEC Activated = target: T28, TEC Activated (Homo sapiens, UniProt P42680); experiment: KinaseProfiler off-target kinase profiling; assay type: biochemical; conditions: 10 μM, ATP near Km
T28 construct: purchased Millipore, Inc. (KinaseProfiler service)
Method: as §1

ULK2 = target: T29, ULK2 (Homo sapiens, UniProt Q8IYT8); experiment: KinaseProfiler off-target kinase profiling; assay type: biochemical; conditions: 10 μM, ATP near Km
T29 construct: purchased Millipore, Inc. (KinaseProfiler service)
Method: as §1

eEF-2K = target: T30, eEF-2K (Homo sapiens, UniProt O00418); experiment: KinaseProfiler off-target kinase profiling; assay type: biochemical; conditions: 10 μM, ATP near Km
T30 construct: purchased Millipore, Inc. (KinaseProfiler service)
Method: as §1

p70S6K = target: T31, p70S6K (Homo sapiens, UniProt P23443); experiment: KinaseProfiler off-target kinase profiling; assay type: biochemical; conditions: 10 μM, ATP near Km
T31 construct: purchased Millipore, Inc. (KinaseProfiler service)
Method: as §1

TrkA = TrkA (Homo sapiens, UniProt P04629); experiment: TrkA LanthaScreen Eu Kinase Binding Assay; parameters: 6HIS tagged cytoplasmic domain from Invitrogen, Cat. No. PV3144; purchased Invitrogen PV3144; conditions: averaged IC50; TR-FRET binding, 60 min, 22° C.; read-out: TrkA enzyme IC50
Method: TrkA binding activity was determined in a TrkA LanthaScreen™ Eu Kinase Binding Assay. 5 nM His-tagged recombinant human TrkA (6HIS tagged cytoplasmic domain from Invitrogen, Cat. No. PV3144) was incubated with 4 nM Alexa-Fluor® Tracer 236 (Invitrogen Cat. No. PV5592), 2 nM biotinylated anti-His (Invitrogen Cat. No. PV6090), and 2 nM europium-labeled Streptavidin (Invitrogen Cat. No. PV5899), in buffer (25 mM MOPS, pH 7.5, 5 mM MgCl2, 0.005% Triton X-100). Three fold serial dilutions of compounds of the invention in DMSO were added to a final percentage of 2% DMSO. After 60-minute incubation at 22° C., the reaction was measured using the EnVision mutlimode plate reader (PerkinElmer) via TR-FRET dual wavelength detection at […]. The percent of control was calculated using a ratiometric emission factor. The IC50 values were determined by fitting a four parameter model to the percent of control data.
Table A provides averaged IC50 values for compounds of the invention when tested in the assay of Example A, where A represents an averaged IC50 value <100 nM; and B represents an averaged IC50 value from 100 to 1,000 nM.

T5 sequence (P78368 whole entry): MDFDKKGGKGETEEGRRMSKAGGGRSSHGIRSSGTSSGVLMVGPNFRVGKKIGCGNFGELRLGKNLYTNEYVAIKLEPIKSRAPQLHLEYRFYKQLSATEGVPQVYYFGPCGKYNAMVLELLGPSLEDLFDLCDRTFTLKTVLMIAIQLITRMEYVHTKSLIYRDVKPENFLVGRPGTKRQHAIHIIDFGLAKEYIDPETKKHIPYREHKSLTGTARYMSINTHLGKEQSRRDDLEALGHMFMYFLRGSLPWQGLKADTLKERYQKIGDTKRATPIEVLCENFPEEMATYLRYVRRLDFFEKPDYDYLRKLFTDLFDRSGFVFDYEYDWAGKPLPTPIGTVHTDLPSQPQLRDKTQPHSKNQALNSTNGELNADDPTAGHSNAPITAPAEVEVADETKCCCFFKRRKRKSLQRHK
Sequence of TrkA (P04629 440-796 limits assumed): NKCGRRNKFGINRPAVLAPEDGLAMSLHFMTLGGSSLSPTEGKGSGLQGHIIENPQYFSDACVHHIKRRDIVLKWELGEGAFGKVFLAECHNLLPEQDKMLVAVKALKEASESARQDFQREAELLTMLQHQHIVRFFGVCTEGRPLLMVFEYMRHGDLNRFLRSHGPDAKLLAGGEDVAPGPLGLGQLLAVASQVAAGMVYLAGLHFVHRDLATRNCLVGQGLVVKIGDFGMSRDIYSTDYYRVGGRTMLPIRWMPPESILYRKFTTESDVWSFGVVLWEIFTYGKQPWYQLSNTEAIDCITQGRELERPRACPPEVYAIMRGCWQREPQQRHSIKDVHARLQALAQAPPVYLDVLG
T12 sequence (Q8TF76 whole entry): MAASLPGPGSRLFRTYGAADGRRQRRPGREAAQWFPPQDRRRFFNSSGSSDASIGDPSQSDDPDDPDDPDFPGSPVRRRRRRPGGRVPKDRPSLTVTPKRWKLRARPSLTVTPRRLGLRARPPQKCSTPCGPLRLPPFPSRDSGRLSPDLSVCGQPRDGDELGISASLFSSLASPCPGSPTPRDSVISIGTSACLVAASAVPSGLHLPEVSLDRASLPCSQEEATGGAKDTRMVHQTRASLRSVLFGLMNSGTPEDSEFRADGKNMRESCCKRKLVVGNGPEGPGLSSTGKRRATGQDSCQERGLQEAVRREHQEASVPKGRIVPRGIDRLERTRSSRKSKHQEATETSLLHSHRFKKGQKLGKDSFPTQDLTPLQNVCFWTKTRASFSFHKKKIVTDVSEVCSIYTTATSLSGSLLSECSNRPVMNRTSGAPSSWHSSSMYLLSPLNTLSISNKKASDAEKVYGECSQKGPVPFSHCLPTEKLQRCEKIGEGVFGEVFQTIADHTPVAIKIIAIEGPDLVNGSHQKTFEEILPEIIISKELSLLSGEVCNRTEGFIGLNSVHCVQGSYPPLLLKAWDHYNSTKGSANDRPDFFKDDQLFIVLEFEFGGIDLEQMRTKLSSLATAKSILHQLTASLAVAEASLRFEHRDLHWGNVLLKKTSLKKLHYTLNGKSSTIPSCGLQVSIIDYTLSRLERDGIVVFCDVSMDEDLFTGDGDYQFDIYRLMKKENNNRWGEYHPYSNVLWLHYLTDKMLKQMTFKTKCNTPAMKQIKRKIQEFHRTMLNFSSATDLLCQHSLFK
T6 sequence (P68400 whole entry): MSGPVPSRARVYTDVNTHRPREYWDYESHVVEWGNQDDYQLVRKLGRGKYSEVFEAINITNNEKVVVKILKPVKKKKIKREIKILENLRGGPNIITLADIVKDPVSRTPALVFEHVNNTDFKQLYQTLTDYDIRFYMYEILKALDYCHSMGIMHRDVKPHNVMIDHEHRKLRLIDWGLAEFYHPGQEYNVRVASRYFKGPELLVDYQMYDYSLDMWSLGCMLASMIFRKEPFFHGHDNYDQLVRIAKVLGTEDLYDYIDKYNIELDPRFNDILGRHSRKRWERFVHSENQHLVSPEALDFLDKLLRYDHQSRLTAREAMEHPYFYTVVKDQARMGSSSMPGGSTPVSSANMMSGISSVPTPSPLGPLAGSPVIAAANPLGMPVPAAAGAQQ
T6 sequence (P67870 whole entry partner): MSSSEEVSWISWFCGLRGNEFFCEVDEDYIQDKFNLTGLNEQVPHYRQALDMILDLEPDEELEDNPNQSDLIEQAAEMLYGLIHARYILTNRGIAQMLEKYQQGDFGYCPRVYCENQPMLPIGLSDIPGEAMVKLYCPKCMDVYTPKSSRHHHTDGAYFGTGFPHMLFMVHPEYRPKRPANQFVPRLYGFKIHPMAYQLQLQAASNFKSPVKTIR
T25 sequence (Q15139 whole entry): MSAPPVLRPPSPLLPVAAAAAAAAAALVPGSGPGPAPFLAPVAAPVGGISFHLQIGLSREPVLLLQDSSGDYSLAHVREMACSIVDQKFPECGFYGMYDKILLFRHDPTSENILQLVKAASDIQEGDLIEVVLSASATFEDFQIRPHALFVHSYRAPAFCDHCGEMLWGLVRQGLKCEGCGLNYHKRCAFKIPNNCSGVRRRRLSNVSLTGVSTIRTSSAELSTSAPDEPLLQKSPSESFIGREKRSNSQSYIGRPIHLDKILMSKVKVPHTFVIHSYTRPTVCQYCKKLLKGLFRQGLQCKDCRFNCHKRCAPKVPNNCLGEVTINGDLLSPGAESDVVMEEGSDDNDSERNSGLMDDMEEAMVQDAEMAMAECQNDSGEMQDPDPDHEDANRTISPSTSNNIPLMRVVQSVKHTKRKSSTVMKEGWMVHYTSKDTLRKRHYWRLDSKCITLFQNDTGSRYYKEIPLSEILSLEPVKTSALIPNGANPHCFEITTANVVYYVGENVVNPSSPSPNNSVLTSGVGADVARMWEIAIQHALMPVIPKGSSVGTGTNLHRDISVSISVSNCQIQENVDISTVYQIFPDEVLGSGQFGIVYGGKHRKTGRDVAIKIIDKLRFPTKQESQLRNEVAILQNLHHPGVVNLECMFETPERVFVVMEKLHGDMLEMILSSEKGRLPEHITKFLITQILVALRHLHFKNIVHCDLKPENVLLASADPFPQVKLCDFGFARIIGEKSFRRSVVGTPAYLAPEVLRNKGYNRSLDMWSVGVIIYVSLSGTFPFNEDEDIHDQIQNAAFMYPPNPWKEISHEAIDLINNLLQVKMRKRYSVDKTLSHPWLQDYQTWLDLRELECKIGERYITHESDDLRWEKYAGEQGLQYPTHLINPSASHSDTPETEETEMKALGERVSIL
T14 sequence (P51617 whole entry): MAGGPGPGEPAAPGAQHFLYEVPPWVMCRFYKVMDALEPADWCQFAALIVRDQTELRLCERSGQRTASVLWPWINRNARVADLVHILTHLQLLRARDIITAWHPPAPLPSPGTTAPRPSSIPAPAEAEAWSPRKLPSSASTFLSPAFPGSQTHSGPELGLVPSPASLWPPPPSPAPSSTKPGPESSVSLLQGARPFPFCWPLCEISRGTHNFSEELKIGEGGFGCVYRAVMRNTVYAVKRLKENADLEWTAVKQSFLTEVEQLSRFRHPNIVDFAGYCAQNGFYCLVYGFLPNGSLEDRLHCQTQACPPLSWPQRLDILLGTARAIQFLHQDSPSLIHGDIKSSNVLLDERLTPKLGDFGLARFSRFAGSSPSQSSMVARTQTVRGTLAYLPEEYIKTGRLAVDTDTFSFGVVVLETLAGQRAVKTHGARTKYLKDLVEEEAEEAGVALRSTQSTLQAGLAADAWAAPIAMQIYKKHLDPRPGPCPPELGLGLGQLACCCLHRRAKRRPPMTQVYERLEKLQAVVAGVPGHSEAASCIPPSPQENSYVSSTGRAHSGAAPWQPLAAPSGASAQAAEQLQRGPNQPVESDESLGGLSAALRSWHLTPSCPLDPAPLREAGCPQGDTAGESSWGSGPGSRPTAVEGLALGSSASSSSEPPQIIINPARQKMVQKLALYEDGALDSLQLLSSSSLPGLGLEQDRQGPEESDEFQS
T22 sequence (Q9P286 whole entry): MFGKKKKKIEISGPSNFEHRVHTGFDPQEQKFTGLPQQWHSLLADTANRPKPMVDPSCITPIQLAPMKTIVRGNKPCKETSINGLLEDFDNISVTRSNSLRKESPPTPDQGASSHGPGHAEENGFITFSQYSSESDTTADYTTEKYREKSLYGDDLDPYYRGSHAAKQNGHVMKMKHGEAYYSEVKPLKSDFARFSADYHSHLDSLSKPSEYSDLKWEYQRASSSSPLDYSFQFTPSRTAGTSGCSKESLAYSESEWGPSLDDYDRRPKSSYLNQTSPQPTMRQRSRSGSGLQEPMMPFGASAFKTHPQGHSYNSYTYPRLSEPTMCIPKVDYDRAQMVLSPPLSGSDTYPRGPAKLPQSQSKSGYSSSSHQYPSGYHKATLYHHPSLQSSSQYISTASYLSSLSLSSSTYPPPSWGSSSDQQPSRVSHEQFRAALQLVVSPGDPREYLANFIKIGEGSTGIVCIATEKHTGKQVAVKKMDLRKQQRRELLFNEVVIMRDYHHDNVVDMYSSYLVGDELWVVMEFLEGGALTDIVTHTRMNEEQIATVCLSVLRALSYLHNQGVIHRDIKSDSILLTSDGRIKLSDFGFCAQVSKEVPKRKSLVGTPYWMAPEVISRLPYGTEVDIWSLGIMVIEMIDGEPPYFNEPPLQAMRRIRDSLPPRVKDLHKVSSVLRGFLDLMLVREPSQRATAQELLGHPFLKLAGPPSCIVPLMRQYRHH
T18 sequence (O14733 whole entry): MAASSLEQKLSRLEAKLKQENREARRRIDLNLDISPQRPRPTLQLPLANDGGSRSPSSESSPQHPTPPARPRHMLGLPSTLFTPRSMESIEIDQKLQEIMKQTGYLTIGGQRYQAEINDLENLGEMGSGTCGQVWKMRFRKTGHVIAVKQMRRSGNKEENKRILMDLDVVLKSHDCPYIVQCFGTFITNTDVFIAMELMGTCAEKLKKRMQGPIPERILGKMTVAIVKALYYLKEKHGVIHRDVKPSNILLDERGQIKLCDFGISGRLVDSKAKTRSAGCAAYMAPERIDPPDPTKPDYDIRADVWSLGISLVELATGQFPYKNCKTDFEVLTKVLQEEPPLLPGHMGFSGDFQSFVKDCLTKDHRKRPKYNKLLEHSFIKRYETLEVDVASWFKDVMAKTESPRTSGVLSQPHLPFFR

Cc1c(-c2cnn(C)c2)nn(-c2ccccc2)c1NC(=O)Nc1sc(C(F)(F)F)nc1-c1ccccc1 [Example 2, 1-(1′,4-dimethyl-1-phenyl-1H,1′H-[3,4′-bipyrazol]-5-yl)-3-(4-phenyl-2-(trifluoromethyl)thiazol-5-yl)urea]
Avg POC (AURKA): 116 POC | Avg POC (Abl2): 136 POC | Avg POC (CAMK1d): 132.5 POC | Avg POC (CDK6/cyclinD3): 119.5 POC | Avg POC (CK1gamma2): 110 POC | Avg POC (CK2): 95 POC | Avg POC (CLK2): 118 POC | Avg POC (EGFR): 111 POC | Avg POC (EphA7): 103 POC | Avg POC (Fes): 121.5 POC | Avg POC (Flt1): 104 POC | Avg POC (Haspin): 112.5 POC | Avg POC (IGF-1R): 82.5 POC | Avg POC (IRAK1): 107.5 POC | Avg POC (JAK2): 147.5 POC | Avg POC (LIMK1): 102 POC | Avg POC (MAPKAP-K2): 143.5 POC | Avg POC (MKK7beta): 143.5 POC | Avg POC (MST2): 109 POC | Avg POC (Mer): 105.5 POC | Avg POC (NEK3): 108.5 POC | Avg POC (PAK5): 131.5 POC | Avg POC (PKCgamma): 90 POC | Avg POC (PKCiota): 67 POC | Avg POC (PKD1): 97.5 POC | Avg POC (Plk2): 99 POC | Avg POC (SGK2): 144.5 POC | Avg POC (TEC Activated): 131 POC | Avg POC (ULK2): 91 POC | Avg POC (eEF-2K): 151.5 POC | Avg POC (p70S6K): 322 POC | IC50 (TrkA): < 100 nM
